Measured values from ChEMBL document CHEMBL1156829 (Proc Natl Acad Sci U S A, 2008).

Key:
Plasmodium falciparum [1] = test: NOVARTIS: Inhibition of Plasmodium falciparum 3D7 (drug-susceptible) proliferation in erythrocyte-based infection assay; assay type: functional, organism-based; settings: Plasmodium falciparum, 3D7
Plasmodium falciparum [2] = test: NOVARTIS: Inhibition of Plasmodium falciparum W2 (drug-resistant) proliferation in erythrocyte-based infection assay; assay type: functional, organism-based; settings: Plasmodium falciparum, W2; read-out: EC50
[3] = NOVARTIS: Cytotoxicity against human hepatocellular carcinoma cell line (Huh7); assay type: toxicity, cell-based, Huh-7; settings: Huh7 cells (hepatocellular carcinoma cell line)

Row | SMILES | EC50 (Plasmodium falciparum [1]) | EC50 (Plasmodium falciparum [2]) | CC50 [3]
1 | OC(CNC1CCCCC1)Cn1c2ccc(Br)cc2c2cc(Br)ccc21 (stereo not given) | 451 nM | 102 nM | 6060 nM
2 | CCCCCCCC(=O)N1CCN(CCN(Cc2ccc(F)cc2)C(=O)c2c(-c3c(F)cccc3Cl)noc2C)CC1 | 1760 nM | 1660 nM | > 100000 nM
3 | Nc1ccc(-c2nc3cc(Oc4ccc5[nH]c(-c6ccc(N)cc6)nc5c4)ccc3[nH]2)cc1 | 683 nM | 357 nM | 21400 nM
4 | COCCN1C(=O)C(O)=C(C(=O)c2ccccc2)C1c1ccccc1[N+](=O)[O-] (stereo not given) | > 12500 nM | 1710 nM | > 100000 nM
5 | COc1cc2c(c(OC)c1CN1CCN(c3ccccc3)CC1)C(=O)c1ccccc1C2=O | 130 nM | 166 nM | > 10000 nM
6 | C=C[C@H]1CN2CC[C@H]1C[C@H]2[C@H](OC(=O)CC)c1ccnc2ccccc12 | 364 nM | 166 nM | > 10000 nM
7 | N#Cc1c(-c2ccccc2)cc(N2CCN(Cc3ccc(Cl)cc3)CC2)n2c1nc1ccccc12 | 1120 nM | 1710 nM | > 100000 nM
8 | COc1ccc(C=CC(=O)Nc2ccc3nc(N4CCN(C)CC4)cc(C)c3c2)cc1OC | 708 nM | 946 nM | 55200 nM
9 | Clc1ccc(NCn2nnc3ccccc32)nc1 | > 8200 nM | 1690 nM | > 100000 nM
10 | c1ccc(Cn2nnnc2CN2CCN(C(c3ccccc3)c3ccccc3)CC2)cc1 | 2870 nM | 1670 nM | > 100000 nM
11 | CCOC(=O)c1c(C)n(-c2ccccc2)c2ccc(OC(=O)C3CC3)cc12 | 749 nM | 1720 nM | > 100000 nM
12 | COCCNC(=O)C(c1ccc(C)cc1)N(Cc1ccccc1)C(=O)CCC(=O)Nc1nccs1 (stereo not given) | > 4590 nM | 1720 nM | > 100000 nM
13 | CN(CCCNc1ccnc2cc(Cl)ccc12)C(=O)CC(C)(C)C | 236 nM | 173 nM | > 10000 nM
14 | COc1ccc(-c2c[n+](Cc3ccc(Cl)c(Cl)c3)c3n2CCC3)cc1 | 537 nM | 858 nM | 49700 nM
15 | Cc1ccccc1C[n+]1cc(-c2ccc(Cl)cc2)n2c1CCC2 | 1390 nM | 1720 nM | > 100000 nM
16 | Nc1c(C(=O)Nc2ccc(F)cc2)sc2nc3c(c(-c4cccs4)c12)CCCC3 | 1130 nM | 1710 nM | > 100000 nM
17 | CCC(C)N1CCN(Cc2cccc(OC)c2OC)CC1 (stereo not given) | > 1250 nM | > 169 nM | > 10000 nM
18 | O=C(Cn1c(=O)oc2cc(S(=O)(=O)N3CCCC3)ccc21)Nc1cccnc1 | > 951 nM | 169 nM | > 10000 nM
19 | CC(C)N(C(=O)Cn1ccc(=N)c2ccccc21)C(C)C | 1240 nM | 1650 nM | > 100000 nM
20 | CC(=O)N(C1=C(N2CCOCC2)C(=O)c2ccccc2C1=O)c1ccc(F)c(F)c1 | 74.3 nM | 57.5 nM | 3480 nM
21 | O=C1CN(C(=O)COC(=O)c2ccccc2NCCc2ccc(F)cc2)c2ccccc2N1 | 219 nM | 165 nM | > 10000 nM
22 | OCCNc1nc(Nc2ccc(Cl)c(Cl)c2)nc2ccccc12 | 140 nM | 154 nM | 9400 nM
23 | CCCCCc1ccc(OCCCC[n+]2cccc(C)c2)c(CCCCC)c1 | 713 nM | 336 nM | 20500 nM
24 | O=[N+]([O-])c1ccc(N2CCN(C(=S)Nc3ccccc3)CC2)cc1 | 6010 nM | 1640 nM | > 100000 nM
25 | COc1nc(Nc2ccc(C(C)C)cc2)nc(OC)n1 | 677 nM | 935 nM | 56900 nM
26 | COc1nc(C)nc(NC(=O)NC(=O)c2c(OC)ccc([N+](=O)[O-])c2OC)n1 | > 266 nM | > 164 nM | > 10000 nM
27 | Nc1ccc(-c2nc3cc(Oc4ccc(Oc5ccc6[nH]c(-c7ccc(N)cc7)nc6c5)cc4)ccc3[nH]2)cc1 | 288 nM | 246 nM | 15000 nM
28 | CCOC(=O)C(=CNc1ccccc1[N+](=O)[O-])C(=O)OCC | 7990 nM | 1730 nM | > 100000 nM

Row | SMILES | EC50 (Plasmodium falciparum [1]) | EC50 (Plasmodium falciparum [2]) | CC50 [3]
29 | O=c1cccc2n1CC1CC2CN(Cc2cccc(O)c2)C1 (stereo not given) | > 12500 nM | 1700 nM | > 100000 nM
30 | CC(C)(C)CC(C)(C)Nc1c(-c2ccccc2OC(=O)C(c2ccccc2)c2ccccc2)nc2ccccn12 | 882 nM | 36.5 nM | 2150 nM
31 | CCCC(C(=O)OCC)C(C)=NNc1ccccc1[N+](=O)[O-] (stereo not given) | 1270 nM | 1670 nM | > 100000 nM
32 | C[n+]1ccccc1/C=C/C1=C(c2ccccc2)Oc2ccccc2O1 | 133 nM | 249 nM | 14900 nM
33 | COC(=O)NCCNC(=O)COC(c1cccs1)c1cccnc1Cl (stereo not given) | 185 nM | 170 nM | > 10000 nM
34 | CC(C)N(CCNc1ncnc2c1[nH]c1ccc(Cl)cc12)C(C)C | 262 nM | 252 nM | 15200 nM
35 | O=C(CN1CCCC1)Nc1nc(-c2ccc3c(c2)CCN3S(=O)(=O)c2ccccc2)cs1 | 468 nM | 1270 nM | > 76200 nM
36 | CCOC(=O)c1ccc2c(c1)[n+](CC)c(/C=C/N(C)c1ccccc1)n2CC | 272 nM | 588 nM | 34400 nM
37 | Cc1ccc(NC(=O)N2CCN(C(=O)c3nc(-c4ccccc4)nc(C)c3C(=O)OC(C)C)CC2C)cc1 (stereo not given) | 441 nM | 171 nM | > 10000 nM
38 | CC(C)Cc1nc(N2CCOCC2)c2nnn(Cc3ccccc3)c2n1 | 3030 nM | 1650 nM | > 100000 nM
39 | CCOC(=O)c1sc(-c2cnccc2C(F)(F)F)nc1C | > 912 nM | 172 nM | > 10000 nM
40 | CCc1cccc(NC(=S)N2CCCC2c2ccccc2C(F)(F)F)c1 (stereo not given) | 408 nM | 170 nM | > 10000 nM
41 | CC(C)(C)c1ccc(-c2nc(C34CC5CC(CC(C5)C3)C4)cs2)cc1 | > 12500 nM | 1650 nM | > 100000 nM
42 | COc1ccc(-c2cnc3ccc(NCc4cccc(Cl)c4)nn23)cn1 | 805 nM | 1130 nM | 68900 nM
43 | CCCC(=O)NC(c1ccc(Cl)cc1)c1ccc2cccnc2c1O (stereo not given) | 288 nM | 170 nM | 10300 nM
44 | OCCC1CN(Cc2cccc(Cl)c2)CCN1Cc1ccccc1 (stereo not given) | > 12500 nM | 1730 nM | > 100000 nM
45 | Cc1ccc(NC2=C(c3ccc(C(F)(F)F)cc3)C(=O)c3ccccc32)cc1C | 1240 nM | 1690 nM | > 100000 nM
46 | Cc1cc(N2CCN(C3CCCC3)CC2)n2c(nc3ccccc32)c1C#N | 743 nM | 1670 nM | > 100000 nM
47 | COc1ccccc1N(CN1C(=O)c2ccc(Br)cc2C1=O)C(C)=O | > 1250 nM | > 171 nM | > 10000 nM
48 | CCC[n+]1cccc2ccc3cccnc3c21 | 210 nM | 756 nM | 44300 nM
49 | O=C(Nc1cc(Cl)cc(Cl)c1)C1C2C=CC3(O2)C1C(=O)N(CCC1=CCCCC1)C3C(=O)NC1CCCCC1 (stereo not given) | > 11000 nM | 1710 nM | > 100000 nM
50 | Cc1ccnc(NS(=O)(=O)c2ccc(NC(=O)C(C)C)cc2)n1 | > 6150 nM | 1690 nM | > 100000 nM
51 | c1ccc(Nc2nc(NCC3CCCO3)c3ccccc3n2)cc1 (stereo not given) | 114 nM | 169 nM | > 10000 nM
52 | Clc1ccc(OCc2nc3ccccc3n2CCc2ccccc2)cc1 | > 720 nM | 165 nM | > 10000 nM
53 | CSc1nc2sc3c(c2c(=O)n1-c1ccccc1)CCN(CCc1ccccc1)C3 | 859 nM | 1140 nM | > 69300 nM
54 | CCCCCCCc1cc(O)c2c3c(c(=O)oc2c1)CCC(C)C3 (stereo not given) | 1210 nM | 1720 nM | > 100000 nM
55 | CC1=[N+](CC(=O)c2ccc(C)cc2)CCn2c(C)ccc21 | 1050 nM | 1660 nM | > 100000 nM
